Data on 19 compounds can be found in patent US9796711B2, “Substituted pyrazolo[3,4-b]pyridin-6-carboxylic acids and method of use” (AbbVie S.àr.l., priority 2015, dated 2017).

In test [1] the target is T1, ΔF508-CFTR (Homo sapiens, UniProt P13569, DEL508-508).
T1 construct: host or cells: CFBE41o-, doxycycline-inducible
Kind of test: CFTR cell surface levels using HRP-tagged ΔF508-CFTR expressing CFBE cells, intrinsic corrector capacity. Type of test: cell-based. The settings on record: for pEC50: read-out: EC50. In short, it runs like this:
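Here the cells express ΔF508-CFTR with horseradish peroxidase inserted in extracellular loop 4, so only rescued channel at the surface gives luminescent signal. Compounds act on their own, 20 h at the reduced temperature of 33 °C; values are percent activity relative to DMSO and a 3 μM corrector.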

Test [2] has as its target T1, ΔF508-CFTR. The test is described as follows: CFTR cell surface levels using HRP-tagged ΔF508-CFTR expressing CFBE cells, in the presence of a co-corrector. Type of test: cell-based. The settings on record: HRP-tagged ΔF508-CFTR expressing CFBE cells, in the presence of 3 μM co-corrector; for pEC50: read-out: EC50. Summed up:
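Cells were seeded with 0.5 μg/mL doxycycline and held 68 h at 37 °C. Test compounds plus 3 μM co-corrector (final 0.1% DMSO) were then added for 20 h at 33 °C. Washed cells received HRP substrate, and luminescence was normalized between DMSO and 3 μM co-corrector controls.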

Setting [3] is: HRP-tagged ΔF508-CFTR expressing CFBE cells, intrinsic corrector capacity (no co-corrector), 33° C., 20 hours.
Where [4] appears, read: HRP-tagged ΔF508-CFTR CFBE41o- cells, compounds alone (intrinsic corrector capacity), 20 hours at 33° C., positive control 3 μM corrector.
The mark [5] stands for this setting: HRP-tagged ΔF508-CFTR CFBE41o- cells, compounds alone (intrinsic corrector capacity), 20 hours at 33° C.
[6] abbreviates: HRP-tagged ΔF508-CFTR CFBE cells, compound alone (intrinsic corrector capacity), 20 hours at 33° C.

As a reminder, the pEC50 is the negative decadic logarithm of the EC50, by convention in mol/L.

pEC50: −log10 of the molar value.

T1 sequence (P13569 with tags, fused parts or gaps DEL508-508): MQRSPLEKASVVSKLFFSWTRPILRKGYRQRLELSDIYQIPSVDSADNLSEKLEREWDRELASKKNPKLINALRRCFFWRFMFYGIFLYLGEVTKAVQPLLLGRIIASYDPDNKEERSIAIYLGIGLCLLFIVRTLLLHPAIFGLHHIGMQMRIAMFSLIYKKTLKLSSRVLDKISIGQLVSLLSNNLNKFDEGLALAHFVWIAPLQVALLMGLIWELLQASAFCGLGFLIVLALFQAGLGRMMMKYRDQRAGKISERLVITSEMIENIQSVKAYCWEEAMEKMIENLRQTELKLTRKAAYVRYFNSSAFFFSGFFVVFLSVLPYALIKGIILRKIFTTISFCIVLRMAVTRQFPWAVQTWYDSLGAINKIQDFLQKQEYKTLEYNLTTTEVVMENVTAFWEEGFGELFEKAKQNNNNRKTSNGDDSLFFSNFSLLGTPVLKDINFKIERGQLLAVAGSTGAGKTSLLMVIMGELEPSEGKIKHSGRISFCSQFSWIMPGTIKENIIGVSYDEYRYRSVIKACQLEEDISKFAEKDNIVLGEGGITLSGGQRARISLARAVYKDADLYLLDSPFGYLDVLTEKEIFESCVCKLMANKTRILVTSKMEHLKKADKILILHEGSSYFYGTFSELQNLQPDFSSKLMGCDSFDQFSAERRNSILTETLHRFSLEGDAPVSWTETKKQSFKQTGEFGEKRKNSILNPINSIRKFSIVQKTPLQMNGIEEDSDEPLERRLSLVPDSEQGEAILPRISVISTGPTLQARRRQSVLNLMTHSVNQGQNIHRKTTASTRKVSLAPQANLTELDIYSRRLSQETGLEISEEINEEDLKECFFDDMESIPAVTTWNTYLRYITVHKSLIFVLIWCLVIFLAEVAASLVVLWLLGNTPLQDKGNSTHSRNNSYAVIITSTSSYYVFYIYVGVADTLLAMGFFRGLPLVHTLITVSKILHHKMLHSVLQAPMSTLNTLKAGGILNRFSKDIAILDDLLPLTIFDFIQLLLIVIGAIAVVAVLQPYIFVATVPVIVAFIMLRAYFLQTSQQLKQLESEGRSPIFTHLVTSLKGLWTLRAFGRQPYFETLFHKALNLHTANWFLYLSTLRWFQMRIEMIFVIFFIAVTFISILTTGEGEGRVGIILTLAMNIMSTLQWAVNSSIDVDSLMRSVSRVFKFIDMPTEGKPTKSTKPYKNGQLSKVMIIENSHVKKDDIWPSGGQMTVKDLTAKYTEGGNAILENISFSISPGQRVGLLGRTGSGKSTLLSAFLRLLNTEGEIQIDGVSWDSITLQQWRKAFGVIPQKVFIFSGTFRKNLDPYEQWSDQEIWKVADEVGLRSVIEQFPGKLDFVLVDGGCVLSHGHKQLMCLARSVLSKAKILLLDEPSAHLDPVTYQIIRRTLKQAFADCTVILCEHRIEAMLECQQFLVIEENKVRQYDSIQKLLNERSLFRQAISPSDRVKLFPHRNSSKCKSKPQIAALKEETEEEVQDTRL

On to `O=C(O)c1cc(N2CCC(N3CCOCC3)CC2)c2c(C3CCC3)nn(-c3ccc4c(c3)CC4)c2n1` [compound 911, 1-(bicyclo[4.2.0]octa-1,3,5-trien-3-yl)-3-cyclobutyl-4-[4-(morpholin-4-yl)piperidin-1-yl]-1H-pyrazolo[3,4-b]pyridine-6-carboxylic acid], for which, on ΔF508-CFTR [1] (setting [3]), the “% Activation” value is 222.45% and the pEC50 is 6.72. Also, at ΔF508-CFTR [2], the “% Activation” value is 405.9% and the pEC50 is 7.13.
For the compound `CC(C)c1nn(-c2ccc(F)c(F)c2)c2nc(C(=O)O)cc(-c3ccc(N4CCOCC4)cc3)c12` [compound 243, 1-(3,4-difluorophenyl)-4-[4-(morpholin-4-yl)phenyl]-3-(propan-2-yl)-1H-pyrazolo[3,4-b]pyridine-6-carboxylic acid], the “% Activation” value on ΔF508-CFTR [1] (setting [4]) turned out to be 224.73%; at ΔF508-CFTR [2], 402.73%. In addition, the pEC50 on ΔF508-CFTR [1] (setting [5]) is 6.18; at ΔF508-CFTR [2], 6.39.
Turning to `CCC1(COc2cc(C(=O)O)nc3c2c(C2CCC2)nn3-c2ccccc2)COCOC1` [compound 620, 3-cyclobutyl-4-[(5-ethyl-1,3-dioxan-5-yl)methoxy]-1-phenyl-1H-pyrazolo[3,4-b]pyridine-6-carboxylic acid], at ΔF508-CFTR [1] (setting [3]), the “% Activation” value stood at 147.4% and the pEC50 was 6.60. Further, at ΔF508-CFTR [2], the “% Activation” value amounted to 323.25% and the pEC50 was 6.77.
As for `CC(C)c1nn(-c2ccc(F)cc2)c2nc(C(=O)O)cc(N3CCN(CC4CCCN(C)C4)CC3)c12` (stereo not shown) [compound 791, 1-(4-fluorophenyl)-4-{4-[(1-methylpiperidin-3-yl)methyl]piperazin-1-yl}-3-(propan-2-yl)-1H-pyrazolo[3,4-b]pyridine-6-carboxylic acid], at ΔF508-CFTR [1] (setting [3]), the “% Activation” value is reported as 79.95% and the pEC50 was 5.78. On ΔF508-CFTR [2], the “% Activation” value came out at 307.5% and the pEC50 was 5.78.
As for `CC(C)c1nn(C2CCCOC2)c2nc(C(=O)O)cc(-c3ccc(N4CCC(C#N)CC4)nc3)c12` (stereo not shown) [compound 365, 4-[6-(4-cyanopiperidin-1-yl)pyridin-3-yl]-1-(oxan-3-yl)-3-(propan-2-yl)-1H-pyrazolo[3,4-b]pyridine-6-carboxylic acid], the “% Activation” value at ΔF508-CFTR [1] (setting [4]) is recorded as 147.55%; at ΔF508-CFTR [2], 278.05%. Further, the pEC50 at ΔF508-CFTR [1] (setting [5]) is 5.59; at ΔF508-CFTR [2] it was 5.81.
Take `COCC1CCN(c2cc(C(=O)O)nc3c2c(C2CCC2)nn3-c2ccnc(OC)c2)CC1` [compound 678, 3-cyclobutyl-4-[4-(methoxymethyl)piperidin-1-yl]-1-(2-methoxypyridin-4-yl)-1H-pyrazolo[3,4-b]pyridine-6-carboxylic acid]: the “% Activation” value on ΔF508-CFTR [1] (setting [3]) worked out at 181.5%; at ΔF508-CFTR [2] it was 373.3%. Also, the values for the pEC50 on ΔF508-CFTR [1] (setting [3]) and at ΔF508-CFTR [2] were 6.64 and 7.04, respectively.
The like results for `CN(c1cc(C(=O)O)nc2c1c(C1CCC1)nn2-c1ccccc1)[C@H]1C[C@@H](OC(C)(C)C)C1` [compound 439, 4-[(cis-3-tert-butoxycyclobutyl)(methyl)amino]-3-cyclobutyl-1-phenyl-1H-pyrazolo[3,4-b]pyridine-6-carboxylic acid] were, in that order, 120.85%, 312.85%, 5.95 and 5.95.
`CC(C)Oc1nn(C2CCCCC2)c2nc(C(=O)O)cc(-c3ccc(C#N)cc3)c12` [compound 923, 4-(4-cyanophenyl)-1-cyclohexyl-3-[(propan-2-yl)oxy]-1H-pyrazolo[3,4-b]pyridine-6-carboxylic acid]: on ΔF508-CFTR [1] (setting [6]), the “% Activation” value was 60.466% and the pEC50 is 6.45. Further, on ΔF508-CFTR [2], the “% Activation” value is reported as 263% and the pEC50 was 6.42.
For the compound `N#CCCN1CCN(c2cc(C(=O)O)nc3c2c(C2CCC2)nn3-c2ccccc2)CC1` [compound 561, 4-[4-(2-cyanoethyl)piperazin-1-yl]-3-cyclobutyl-1-phenyl-1H-pyrazolo[3,4-b]pyridine-6-carboxylic acid], the figures for the “% Activation” value on ΔF508-CFTR [1] (setting [3]) and on ΔF508-CFTR [2] were 174.8% and 348%, respectively. Moreover, the values for the pEC50 on ΔF508-CFTR [1] (setting [3]) and at ΔF508-CFTR [2] were 5.80 and 6.37, respectively.
For `Cc1cccc(-n2nc(C(C)C)c3c(N4CCC5(CC4)CN(C)C(=O)O5)cc(C(=O)O)nc32)c1` [compound 359, 4-(3-methyl-2-oxo-1-oxa-3,8-diazaspiro[4.5]decan-8-yl)-1-(3-methylphenyl)-3-(propan-2-yl)-1H-pyrazolo[3,4-b]pyridine-6-carboxylic acid], the “% Activation” value at ΔF508-CFTR [1] (setting [4]) is listed as 142%; on ΔF508-CFTR [2] it was 349.55%. In addition, the pEC50 was 5.69 on ΔF508-CFTR [1] (setting [5]) and 5.66 on ΔF508-CFTR [2].
The like results for `Cc1nn(-c2ccccc2)c2nc(C(=O)O)cc(N3CC[C@H](F)C3)c12` [compound 300, 4-[(3S)-3-fluoropyrrolidin-1-yl]-3-methyl-1-phenyl-1H-pyrazolo[3,4-b]pyridine-6-carboxylic acid] were, in that order, 41.065%, 165%, 5.60 and 5.60.
On to `CC(C)c1nn(C2CCCC2)c2nc(C(=O)O)cc(-c3ccc(N4CCOCC4)nc3)c12` [compound 77, 1-cyclopentyl-4-[6-(morpholin-4-yl)pyridin-3-yl]-3-(propan-2-yl)-1H-pyrazolo[3,4-b]pyridine-6-carboxylic acid], for which the “% Activation” value on ΔF508-CFTR [1] (setting [4]) turned out to be 139.5%; at ΔF508-CFTR [2] it was 343.4%. In addition, the pEC50 at ΔF508-CFTR [1] (setting [5]) is 5.93; at ΔF508-CFTR [2], 5.95.
In the case of `CC(C)c1nn(-c2ccc(F)cc2)c2nc(C(=O)O)cc(N3CC[C@@H](N4CCCCC4)C3)c12` [compound 786, 1-(4-fluorophenyl)-4-[(3R)-3-(piperidin-1-yl)pyrrolidin-1-yl]-3-(propan-2-yl)-1H-pyrazolo[3,4-b]pyridine-6-carboxylic acid], on ΔF508-CFTR [1] (setting [3]), the “% Activation” value was found to be 67.03% and the pEC50 was 5.93. In addition, at ΔF508-CFTR [2], the “% Activation” value was determined as 221.6% and the pEC50 was 6.04.
Regarding `COCCC1CCN(c2cc(C(=O)O)nc3c2c(C2CCC2)nn3-c2ccccc2)CC1` [compound 403, 3-cyclobutyl-4-[4-(2-methoxyethyl)piperidin-1-yl]-1-phenyl-1H-pyrazolo[3,4-b]pyridine-6-carboxylic acid], on ΔF508-CFTR [1] (setting [3]), the “% Activation” value was 293.4% and the pEC50 was 6.39. Also, on ΔF508-CFTR [2], the “% Activation” value is 507.25% and the pEC50 was 6.51.
With `O=C(O)c1cc(N2CCN(CC(F)(F)F)CC2)c2c(C3CCC3)nn(-c3ccccc3)c2n1` [compound 470, 3-cyclobutyl-1-phenyl-4-[4-(2,2,2-trifluoroethyl)piperazin-1-yl]-1H-pyrazolo[3,4-b]pyridine-6-carboxylic acid], on ΔF508-CFTR [1] (setting [3]), the “% Activation” value is 147.5% and the pEC50 is 6.13. Moreover, on ΔF508-CFTR [2], the “% Activation” value came out at 311.25% and the pEC50 is 6.37.
`CC(C)c1nn([C@@H]2CCC[C@@H](OCc3ccccc3)C2)c2nc(C(=O)O)cc(-c3ccc(N4CCOCC4)cc3)c12` [compound 163, 1-[(1R,3R)-3-(benzyloxy)cyclohexyl]-4-[4-(morpholin-4-yl)phenyl]-3-(propan-2-yl)-1H-pyrazolo[3,4-b]pyridine-6-carboxylic acid]: the “% Activation” value at ΔF508-CFTR [1] (setting [4]) came out at 232.43%; at ΔF508-CFTR [2], 554.5%. Further, the values for the pEC50 on ΔF508-CFTR [1] (setting [5]) and on ΔF508-CFTR [2] were 6.28 and 6.37, respectively.
Regarding `CS(=O)(=O)NC1CCN(c2cc(C(=O)O)nc3c2c(C2CCC2)nn3-c2ccccc2)CC1` [compound 519, 3-cyclobutyl-4-{4-[(methanesulfonyl)amino]piperidin-1-yl}-1-phenyl-1H-pyrazolo[3,4-b]pyridine-6-carboxylic acid], the “% Activation” value is 149.3% at ΔF508-CFTR [1] (setting [3]) and 340.6% on ΔF508-CFTR [2]. Besides, the pEC50 at ΔF508-CFTR [1] (setting [3]) and on ΔF508-CFTR [2] was 5.48 each time.
As for `Cc1nn(-c2ccccc2)c2nc(C(=O)O)cc(-c3ccc(N(C)C4CCOCC4)nc3)c12` [compound 168, 3-methyl-4-{6-[methyl(oxan-4-yl)amino]pyridin-3-yl}-1-phenyl-1H-pyrazolo[3,4-b]pyridine-6-carboxylic acid], the “% Activation” value turned out to be 190.23% at ΔF508-CFTR [1] (setting [4]) and 379.07% at ΔF508-CFTR [2]. In addition, the results for the pEC50 at ΔF508-CFTR [1] (setting [5]) and on ΔF508-CFTR [2] were 5.89 and 6.16, respectively.
On to `Cc1cccc(-n2nc(C(C)C)c3c(N4CC5CN(CC#N)CC5C4)cc(C(=O)O)nc32)c1` (stereo not shown) [compound 226, 4-[5-(cyanomethyl)hexahydropyrrolo[3,4-c]pyrrol-2(1H)-yl]-1-(3-methylphenyl)-3-(propan-2-yl)-1H-pyrazolo[3,4-b]pyridine-6-carboxylic acid], for which the “% Activation” value at ΔF508-CFTR [1] (setting [4]) stood at 189.05%; on ΔF508-CFTR [2], 352.2%. The figures for the pEC50 on ΔF508-CFTR [1] (setting [5]) and on ΔF508-CFTR [2] were 5.48 and 5.87, respectively.
